20 compounds from patent US20140249105A1, “NOVEL CERAMIDE ANALOGUES, PROCESSES FOR PREPARING SAME AND USES THEREOF” (Diverchim, priority 2011, published 2014) can be followed below.

Format in all cases: cell-based
For data set [1], the target named is T1, tyrosinase (DOPA oxidase) (Homo sapiens, UniProt P14679).
T1 construct: from tissue; host or cells: separated human epidermis from a frozen abdominoplasty (melanocytes in situ)
T1 sequence (P14679 19-529): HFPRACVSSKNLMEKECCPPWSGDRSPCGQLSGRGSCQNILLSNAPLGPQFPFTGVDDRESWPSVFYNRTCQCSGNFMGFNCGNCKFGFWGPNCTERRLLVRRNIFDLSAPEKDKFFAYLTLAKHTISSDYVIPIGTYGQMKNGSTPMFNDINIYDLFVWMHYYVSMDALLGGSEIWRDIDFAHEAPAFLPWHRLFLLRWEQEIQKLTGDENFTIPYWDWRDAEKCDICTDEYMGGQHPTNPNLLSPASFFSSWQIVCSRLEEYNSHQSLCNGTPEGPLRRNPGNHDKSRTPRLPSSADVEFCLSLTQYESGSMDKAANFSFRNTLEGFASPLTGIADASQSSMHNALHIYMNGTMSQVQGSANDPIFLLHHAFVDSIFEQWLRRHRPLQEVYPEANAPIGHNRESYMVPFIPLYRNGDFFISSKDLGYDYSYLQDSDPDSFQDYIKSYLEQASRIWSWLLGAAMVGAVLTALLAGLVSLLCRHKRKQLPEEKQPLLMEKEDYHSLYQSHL
Briefly: Screening of anti-tyrosinase activity: DOPA oxidase reaction on separated epidermis, count of DOPA positive melanocytes per mm2. As to conditions: for Variation/control: DOPA positive melanocyte count per mm2 vs DOPA control, product at 30 μg/mL in DMSO. Here is the method: The products are tested in solution at 30 μg/mL in DMSO. Epidermis samples originating from a frozen abdominoplasty (person) were separated by incubation in 2N NaBr for 1.0 h at 37° C. They were then fixed in a buffered formolized fixing agent, rinsed and put in contact with the volume/volume mixture: solutions of L-DOPA/test formulation. After incubation, they were rinsed and mounted between slide and cover slip with mounting liquid of the Aquatex type. Observation was by optical microscopy with ×10 objective. Images were obtained with a tri CCD Sony DXC […] camera and stored using the Leica IM1000 data archiving software. For each batch, several microscope fields were analysed using the LEICA QWin image analysis software. For each field, the DOPA positive melanocytes were counted and the area of the zone was measured to determine the melanocyte count per mm^2.

Data set [2] deals with B16 melanocytes. Briefly: Screening of anti-melanogenesis activity: melanin assay in B16 melanocytes stimulated with NDP-MSH. The note with it: 72 h; for inhibition at 30 µM / inhibition at 100 µM: Melanocyte, read-out: Normalized data inhibition (%). How it is done:
This was carried out for compounds in solution in DMSO. The synthesis of melanin was measured in a model of B16 melanocytes stimulated with a stable derivative of α-MSH (natural hormone that stimulates melanogenesis: Melanocyte Stimulating Hormone): NDP-MSH ([Nle^4, DPhe7]-α-MSH).
(§1) Melanocytes were seeded on a 96-well plate and cultured for 24 h (37° C., 5% CO2, DMEM 1 g/L glucose without phenol red supplemented with glucose 3 g/L, L-glutamine 2 mM, penicillin 50 U/mL, streptomycin 50 μg/mL, fetal calf serum (FCS) 10%). […] Each experimental condition was carried out with n=3, apart from the controls carried out with n=6. The cells were then incubated for 72 h. Wells without cells received in parallel the same quantities of medium, supplemented or not with NDP-MSH and with or without the test compounds or the reference in order to quantify the background noise associated with the presence of the compounds.
At the end of 72 hours of incubation, the total melanin (intra- and extracellular) was quantified by measuring the absorbance of each sample at 405 nm (direct reading of the culture plates) against a standard range of melanin (melanin concentrations tested from 0.78 to 100 μg/mL). The background noise, measured in the wells without cells, was subtracted from the values measured so that only the effect connected with the production of melanin is taken into account, without including any interference connected with the presence of the compounds. The results were expressed in percentage of melanin relative to the control as well as in percentage inhibition.

In data set [3] the test system is B16 melanocytes. The data set can be described thus: Viability of the cells, test of reduction of MTT. The note with it: 72 h. Here is the method: as §1
At the end of the treatment, the cells were incubated in the presence of MTT (3-(4,5-dimethylthiazol-2-yl)-2,5-diphenyl tetrazolium bromide), the conversion of which to blue crystals of formazan is proportional to the activity of succinate dehydrogenase (mitochondrial enzyme). After disruption of the cells, the formazan was dissolved in DMSO medium and the optical density (OD), representative of the number of live cells and of their metabolic reactivity, was measured with a microplate reader at 540 nm (VERSAmax, Molecular Devices).

In data set [4] the test system is Normal human epidermal keratinocytes (NHEK). Briefly: Proliferation and/or migration of keratinocytes, artificial wound coverage. As to conditions: percentage coverage at 48 h. Here is the method: The phases of migration and proliferation of cells are major phases of healing that occur after the inflammation phase and are necessary for recolonization of the wound. An increase in the migration and proliferation of cells allows an improvement in healing. • Biological model: Normal human epidermal keratinocytes (NHEK) • Culture conditions: 37° C., 5% CO2 • Culture medium: Keratinocyte-SFM-PE-EGF (keratinocyte culture medium—serum free medium (SFM) without pituitary extract (PE) and without Epidermal Growth Factor (EGF) • Conditions: • Control (n=6) • Reference: EGF (Epidermal Growth Factor) at 10 ng/ml (n=2) • compounds tested (n=2) • Incubation: 72 hours • Assay: Normal human keratinocytes were seeded on 96-well plates suitable for the migration studies. In these plates, the substrates were pretreated with a solution of collagen and a mask was placed at the centre of each well, preventing adhesion of the cells in this zone and thus forming an artificial wound. After labelling the cells with calcein, the masks were removed and then the cells were treated with the compounds or the reference. The migration of the cells was monitored microscopically for 72 hours, taking photographs at 0 h, 24 h, 48 h and 72 h. The results are expressed in percentage coverage and compared with the untreated control.

In data set [1], `O=C(NC1CCC(NC(=O)C(F)=CCCCCCCCCO)C1)C(F)=CCCCCCCCCO` (mixture of isomers) [c59] registered a Variation/control of −56. For the same compound, in data set [1] (vs ref 1), the “effectiveness for limiting tyrosinase activity compared with reference compounds” value is on record as “more effective than the reference compounds”. Also, the “Normalized data inhibition (%)” value in the data set with B16 melanocytes [2] (1 μM) was determined as 0%; with B16 melanocytes [2] (3 μM) it was 9%; in the data set with B16 melanocytes [2] (10 μM), 38%; with B16 melanocytes [2] (30 μM), 71%; in the data set on B16 melanocytes [2] (100 μM) it was 118%. Moreover, the “Viability (MTT) % stimulated control” value in the data set with B16 melanocytes [3] (1 μM) was determined as 108 % stimulated control; in the data set on B16 melanocytes [3] (3 μM), 90 % stimulated control; with B16 melanocytes [3] (10 μM), 88 % stimulated control; with B16 melanocytes [3] (30 μM) it was 82 % stimulated control; in the data set with B16 melanocytes [3] (100 μM), 2 % stimulated control.
In data set [1], `O=C(/C=C/CCCCCCCCCCCCCCO)N[C@H]1C[C@@H]1NC(=O)/C=C/CCCCCCCCCCCCCCO` (relative stereo) [c93] displayed a Variation/control of −48.
For orientation: inhibition means the drop in the measured response relative to a control, in per cent. For the compound `O=C(O)/C=C/CCCCCCCCCCCCCCCO` [Ref 1, (E)-18-Hydroxy-octadec-2-enoic acid, reference compound], the Variation/control in data set [1] is −16. Moreover, the inhibition at 30 µM in the data set with B16 melanocytes [2] (30 μM) was 0%. For the same compound, in the data set on B16 melanocytes [2] (100 μM), the inhibition at 100 µM was determined as 115%. Besides, the “Viability (MTT) % stimulated control” value in the data set on B16 melanocytes [3] (mouse, 30 μM) turned out to be 79 % stimulated control; in the data set on B16 melanocytes [3] (mouse, 100 μM) it was 63 % stimulated control.
For `O=C(O)/C=C/CCCCCCCCCCCO` [Ref 3, (E)-14-Hydroxy-tetradec-2-enoic acid, reference compound], the Variation/control in data set [1] is on record as −15.
Turning to `O=C(O)C(F)=CCCCCCCCCCCCO` [Ref 4, 2-Fluoro-14-hydroxy-tetradec-2-enoic acid, reference compound], in data set [1], the Variation/control was −36. The inhibition at 30 µM in the data set with B16 melanocytes [2] (30 μM) came out at 0%. In addition, the inhibition at 100 µM in the data set with B16 melanocytes [2] (100 μM) is 0%. Moreover, the entries for the “Viability (MTT) % stimulated control” value in the data set with B16 melanocytes [3] (30 μM) and with B16 melanocytes [3] (100 μM) were 114 % stimulated control and 95 % stimulated control, respectively.
As to `O=C(O)/C=C/CCCCCCCCCCCCO` [Ref 5, (E)-15-Hydroxy-pentadec-2-enoic acid, reference compound], in data set [1], the Variation/control is reported as −29.
On to `O=C(O)/C=C/CCCCCCCCCO` [Ref 6, (E)-12-Hydroxy-dodec-2-enoic acid, reference compound], for which, in data set [1], the Variation/control is recorded as −24.
Turning to `O=C(/C=C/CCCCCCCCCCCO)N[C@H]1CCC[C@H]1NC(=O)/C=C/CCCCCCCCCCCO` [c17], in data set [4] (1 μM), the “% control 48 h” value was 141 % control.
Take `O=C(N[C@H]1C[C@H]1NC(=O)C(F)=CCCCCCCCO)C(F)=CCCCCCCCO` [c36]: in data set [4] (3 μM), the “% control 48 h” value is recorded as 154 % control.
Still for that read-out and setting: the figure for `O=C(N[C@H]1CCC[C@H]1NC(=O)/C(F)=C/CCCCCCCO)/C(F)=C/CCCCCCCO` [c45] is 145 % control.
With `O=C(NC1CCCC1NC(=O)C(F)=CCCCCCCCCCCCCCCO)C(F)=CCCCCCCCCCCCCCCO` (stereo not drawn) [c53], the “% control 48 h” value in data set [4] (3 μM) is on record as 137 % control.
As to `O=C(N[C@H]1CCC[C@H]1NC(=O)/C(F)=C\CCCCCCCCOC1CCCCO1)/C(F)=C\CCCCCCCCOC1CCCCO1` (stereo partly drawn) [c72], the “Normalized data inhibition (%)” value was 87% with B16 melanocytes [2] (30 μM) and 112% in the data set with B16 melanocytes [2] (100 μM). Also, the “Viability (MTT) % stimulated control” value was 102 % stimulated control in the data set on B16 melanocytes [3] (30 μM) and 86 % stimulated control in the data set on B16 melanocytes [3] (100 μM).
Compound `CCCCCCCCCCC/C=C/C(=O)N[C@H]1CCC[C@H]1NC(=O)/C=C/CCCCCCCCCCC` [c79] gave a Variation/control in data set [1] of −45. Besides, in data set [4] (1 μM), the “% control 48 h” value stood at 141 % control.
On to `O=C(N[C@@H]1CC[C@H](NC(=O)/C(F)=C\CCCCCOC2CCCCO2)C1)/C(F)=C\CCCCCOC1CCCCO1` (stereo partly drawn) [c106], for which the “Normalized data inhibition (%)” value with B16 melanocytes [2] (30 μM) worked out at 114%; in the data set on B16 melanocytes [2] (100 μM) it was 119%. In addition, the “Viability (MTT) % stimulated control” value in the data set with B16 melanocytes [3] (30 μM) is reported as 73 % stimulated control; with B16 melanocytes [3] (100 μM), 36 % stimulated control.
As to `O=C(NC1CCCC1NC(=O)C(F)=CCCCCCOC1CCCCO1)C(F)=CCCCCCOC1CCCCO1` (stereo not drawn) [c107], the “Normalized data inhibition (%)” value came to 66% in the data set with B16 melanocytes [2] (30 μM) and 120% with B16 melanocytes [2] (100 μM). The figures for the “Viability (MTT) % stimulated control” value in the data set with B16 melanocytes [3] (30 μM) and in the data set with B16 melanocytes [3] (100 μM) were 95 % stimulated control and 26 % stimulated control, respectively.
Turning to `O=C(NC1CC1NC(=O)C(F)=CCCCCCOC1CCCCO1)C(F)=CCCCCCOC1CCCCO1` (stereo not drawn) [c111], the “Normalized data inhibition (%)” value in the data set with B16 melanocytes [2] (30 μM) is reported as 25%; with B16 melanocytes [2] (100 μM), 108%. Further, the figures for the “Viability (MTT) % stimulated control” value with B16 melanocytes [3] (30 μM) and in the data set on B16 melanocytes [3] (100 μM) were 98 % stimulated control and 57 % stimulated control, respectively.
As to `O=C(NC1CCC(NC(=O)C(F)=CCCCCCO)C1)C(F)=CCCCCCO` (stereo not drawn) [c116], the “Normalized data inhibition (%)” value came to 6% in the data set on B16 melanocytes [2] (30 μM) and 87% in the data set with B16 melanocytes [2] (100 μM). Besides, the “Viability (MTT) % stimulated control” value in the data set on B16 melanocytes [3] (30 μM) is recorded as 88 % stimulated control; in the data set on B16 melanocytes [3] (100 μM), 91 % stimulated control.
`CCCCCCCCC=CCCCCCCCC(=O)NC1CCCC1NC(=O)CCCCCCCC=CCCCCCCCC` (stereo not drawn) [c127]: in data set [1], the Variation/control is given as −45.
`O=C(NC1CCC(NC(=O)C(F)=CCCCCCOC2CCCCO2)C1)C(F)=CCCCCCOC1CCCCO1` (stereo not drawn) [c149]: the entries for the “Normalized data inhibition (%)” value in the data set with B16 melanocytes [2] (30 μM) and with B16 melanocytes [2] (100 μM) were 108% and 120%, respectively. The “Viability (MTT) % stimulated control” value turned out to be 87 % stimulated control in the data set with B16 melanocytes [3] (30 μM) and 28 % stimulated control in the data set with B16 melanocytes [3] (100 μM).
With “(E)-14-tetrahydropyranyloxy-tetradec-2-enoic acid [Ref3, reference compound]”, the “Normalized data inhibition (%)” value in the data set with B16 melanocytes [2] (30 μM) turned out to be 0%; in the data set on B16 melanocytes [2] (100 μM) it was 11%. In the data set with B16 melanocytes [3] (30 μM), the “Viability (MTT) % stimulated control” value is given as 92 % stimulated control.
